A short description of data set [1]: Stability of the compound assessed as SARS-CoV-2 main protease-mediated compound cleavage at 187.5 uM measured after 4 hrs by LC/MS analysis. Format: ADME. As to conditions: severe acute respiratory syndrome coronavirus 2, 4 h.
Another data set has as its system HEK293. In words: Cytotoxicity against human HEK293 assessed as reduction in cell viability upto 256 uM after 72 hrs by LDH assay. In kind it is cell-based. As to conditions: hek293, 72 h.
The nature of data set [2]: Inhibition of SARS-CoV-2 main protease using K(Dabcy1)-TSAVLQSGFRKM-E-Edans-NH2 as substrate preincubated with enzyme for 30 mins followed by substrate addition by FRET assay. Also noted: species or system Severe acute respiratory syndrome coronavirus 2.
Data set [3] relates to Severe acute respiratory syndrome coronavirus 2. The data set is described as follows: Inhibition of SARS-CoV-2 main protease using K(Dabcy1)-TSAVLQSGFRKM-E-Edans-NH2 as substrate at <=750 uM preincubated with enzyme for 30 mins followed by substrate addition by FRET assay. As to conditions: dose microM <=750, time 30.0 min.

Each structure is given as a SMILES string. pIC50: −log10 of the molar value. Calls of active or inactive are those of the source. The calls are words filed in the database; no cut-off is given here. Numbered stars: 1 amine (or outer) side, 2 acyl side, 3 side chain; on linkers, the order of the positions; unused ones are H or OH. Square brackets hold non-standard residues; d marks the D form. Peptide text beside a SMILES is read from it. * marks the point of attachment. X2 = O=C(Cc1ccc(CCN[*:1])cc1)[*:2]; X1 = NC(=O)Cc1ccc(CCN*)cc1 Some results are limits rather than exact numbers.

3 molecules from ChEMBL document CHEMBL4842328, “A cyclic peptide inhibitor of the SARS-CoV-2 main protease” (Eur J Med Chem, 2021) can be followed below.

On to `NCCCC[C@@H]1NC(=O)[C@H](CO)NC(=O)[C@H](CCC(N)=O)NC(=O)[C@H](Cc2ccccc2)NC(=O)Cc2ccc(cc2)CCNC1=O.O=C(O)C(F)(F)F` (cyclo(FQSK[X2])), for which, in data set [1], the Stabilty result is on record as “Stable”. Also, the Activity entry in the data set on HEK293 is “Non-Toxic”.
As usually defined, the pIC50 is −log10 of the IC50, conventionally taken in molar units. A higher pIC50 goes with a low IC50. In the case of `NCCCC[C@@H]1NC(=O)[C@H](CO)NC(=O)[C@H](CCC(N)=O)NC(=O)[C@@H](Cc2ccccc2)NC(=O)Cc2ccc(cc2)CCNC1=O` (cyclo([dF]QSK[X2])), the pIC50 in data set [2] was less than 2.82.
On to `CC(=O)N[C@@H](Cc1ccccc1)C(=O)N[C@@H](CCC(N)=O)C(=O)N[C@@H](CO)C(=O)N[C@@H](CCCCN)C(=O)NCCc1ccc(CC(N)=O)cc1` (Ac-FQSK-X1), for which, in data set [2], the pIC50 is less than 2.82. In data set [3], the inhibition entry is “inactive”.
